Paper PMC3386472 (Journal of Medicinal Chemistry, 2012)
Entries after “also recorded” stand apart in the source; their conditions may differ. One block for each molecule: values may come before it.

Columns and labels:
human D2 receptor = human D2 receptor (Homo sapiens, UniProt P14416); test: Stimulation of [35S]GTPγS binding, cloned human D2 receptor in CHO cells; conditions: [35S]GTPγS functional assay, % Emax vs DA
human D3 receptor = human D3 receptor (Homo sapiens, UniProt P35462); test: Stimulation of [35S]GTPγS binding, cloned human D3 receptor in CHO cells
Chain of human D3 receptor (P35462 whole entry): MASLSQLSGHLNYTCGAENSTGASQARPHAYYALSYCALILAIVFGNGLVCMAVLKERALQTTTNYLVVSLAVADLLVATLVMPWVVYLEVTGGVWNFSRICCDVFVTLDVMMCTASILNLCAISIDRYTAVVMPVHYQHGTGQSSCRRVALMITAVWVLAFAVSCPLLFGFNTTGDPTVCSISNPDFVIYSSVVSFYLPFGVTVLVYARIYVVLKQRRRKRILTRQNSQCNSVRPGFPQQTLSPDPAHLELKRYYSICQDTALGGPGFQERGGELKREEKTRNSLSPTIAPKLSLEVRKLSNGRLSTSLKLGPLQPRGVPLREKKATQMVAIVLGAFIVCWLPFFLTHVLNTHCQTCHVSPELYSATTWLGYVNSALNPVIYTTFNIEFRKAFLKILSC

[1] = tested on: MPTP- and lactacystin-lesioned animal models; conditions: cited from earlier work
reserpine-treated rats = test: Reversal of reserpine-induced hypolocomotion in rats; conditions: 5 µmol/kg, sc; for P compared to reserpine control (Dunnett's analysis post one-way ANOVA): horizontal locomotor activity; for Reversal of reserpine-induced hypolocomotion (horizontal activity): reserpine 5 mg/kg sc 18 h before, monitored 6 h

Chain of human D2 receptor (P14416 whole entry): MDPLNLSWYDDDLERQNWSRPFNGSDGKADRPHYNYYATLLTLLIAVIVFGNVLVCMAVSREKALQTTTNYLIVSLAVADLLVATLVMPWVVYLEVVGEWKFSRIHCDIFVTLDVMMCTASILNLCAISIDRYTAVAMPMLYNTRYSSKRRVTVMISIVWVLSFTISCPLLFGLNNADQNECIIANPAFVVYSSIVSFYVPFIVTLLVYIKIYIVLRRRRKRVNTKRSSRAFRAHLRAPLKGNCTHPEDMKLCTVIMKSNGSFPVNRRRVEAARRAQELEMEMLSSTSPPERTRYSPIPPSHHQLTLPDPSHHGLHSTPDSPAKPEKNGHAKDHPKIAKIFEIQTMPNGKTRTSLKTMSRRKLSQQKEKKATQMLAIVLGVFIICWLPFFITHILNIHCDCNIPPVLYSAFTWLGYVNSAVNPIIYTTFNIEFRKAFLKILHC

Agonist activity at D2 receptor (in words) (human D2 receptor): full agonist activity | Agonist activity at D3 receptor (in words) (human D3 receptor; [35S]GTPγS functional assay, % Emax vs DA): full agonist activity
Structure (SMILES): CCCN(CCN1CCN(C(=O)c2c[nH]c3ccccc23)CC1)[C@H]1CCc2nc(N)sc2C1 [Compound (−)-45, (S)-(4-{2-[(2-Amino-4,5,6,7-tetrahydrobenzothiazol-6-yl)propylamino]ethyl}piperazin-1-yl)-(1H-indol-3-yl)methanone]

Structure (SMILES): CCCN(CCN1CCN(c2ccc(-c3ccccc3)cc2)CC1)[C@H]1CCc2nc(N)sc2C1 [Compound D-264]
Neuroprotection in PD animal models ([1]; MPTP and lactacystin models): neuroprotective | Behavioral syndromes in PD mouse models ([1]; acute MPTP and progressive lactacystin mouse models): significantly improved behavioral syndromes

Structure (SMILES): CCCN(CCC)CCc1cccc2c1CC(=O)N2.Cl [ropinirole]
P compared to reserpine control (Dunnett's analysis post one-way ANOVA) (reserpine-treated rats): < 0.05 | Reversal of reserpine-induced hypolocomotion (horizontal activity) (reserpine-treated rats): significant locomotor activation

Structure (SMILES): CCCN(CCN1CCN(c2ccc3[nH]ccc3c2)CC1)[C@H]1CCc2nc(N)sc2C1 [Compound (−)-19, (S)-N^6-{2-[4-(1H-Indol-5-yl)piperazin-1-yl]ethyl}-N^6-propyl-4,5,6,7-tetrahydro benzothiazole-2,6-diamine]
P compared to reserpine control (Dunnett's analysis post one-way ANOVA) (reserpine-treated rats): < 0.01 | Reversal of reserpine-induced hypolocomotion (horizontal activity) (reserpine-treated rats): significantly reversing akinesia; also recorded: significant, long-lasting reversal of hypolocomotion

Emax (human D3 receptor; CHO, read-out: hCHO-D3 % Emax): 102 ± 2%
Structure (SMILES): CCCN(CCN1CCN(c2nccc3ccccc23)CC1)[C@H]1CCc2nc(N)sc2C1 [Compound D-301]
